Measurements from BindingDB's records for doi:10.1021/jm100394y (Amgen, 2010).
pEC50: −log10 of the molar value.

Test: Inhibition of aurora B in human HeLa cells assessed as increase of >= 4N DNA level after 24 hrs by Hoechst staining

pEC50 | SMILES
7.55 | CNc1nccc(-c2cccnc2Oc2ccc(NC(=O)c3ccccc3Nc3ccc(F)cc3)cc2)n1 [2-(4-Fluorophenylamino)-N-(4-(3-(2-(methylamino)pyrimidin-4-yl)pyridin-2-yloxy)phenyl)benzamide]
< 5.92 | CNc1nccc(-c2cccnc2Oc2ccc(NC(=O)c3cccc(Cl)c3)cc2C)n1 [3-Chloro-N-(3-methyl-4-(3-(2-(methylamino)pyrimidin-4-yl)-pyridin-2-yloxy)phenyl)benzamide]
7.62 | CNc1nccc(-c2cccnc2Oc2ccc(Nc3nnc(-c4ccc(F)cc4)c4ccccc34)cc2)n1 [4-(4-Fluorophenyl)-N-(4-(3-(2-(methylamino)pyrimidin-4-yl)-pyridin-2-yloxy)phenyl)phthalazin-1-amine]
< 5.92 | CNc1nccc(-c2cccnc2Oc2ccc(NC(=O)c3ccc(Cl)cc3)cc2C)n1 [4-Chloro-N-(3-methyl-4-(3-(2-(methylamino)pyrimidin-4-yl)-pyridin-2-yloxy)phenyl)benzamide]
7.70 | CNc1nccc(-c2cccnc2Oc2ccc(NC(=O)c3cc(F)ccc3Nc3ccccc3)cc2)n1 [5-Fluoro-N-(4-(3-(2-(methylamino)pyrimidin-4-yl)pyridin-2-yloxy)phenyl)-2-(phenylamino)benzamide]
5.84 | CNc1nccc(-c2cccnc2Oc2ccc(NC(=O)c3ccccc3Nc3ccccc3)c(C)c2)n1 [N-(2-Methyl-4-(3-(2-(methylamino)pyrimidin-4-yl)pyridin-2-yloxy)phenyl)-2-(phenylamino)benzamide]
7.05 | CNc1nccc(-c2cccnc2Oc2ccc(NC(=O)c3ccccc3Nc3ccccc3)cc2C)n1 [N-(3-Methyl-4-(3-(2-(methylamino)pyrimidin-4-yl)pyridin-2-yloxy)phenyl)-2-(phenylamino)benzamide]
< 5.92 | CNc1nccc(-c2cccnc2Oc2ccc(NC(=O)c3ccccc3Oc3ccccc3)cc2C)n1 [N-(3-Methyl-4-(3-(2-(methylamino)pyrimidin-4-yl)pyridin-2-yloxy)phenyl)-2-phenoxybenzamide]
< 5.92 | CNc1nccc(-c2cccnc2Oc2ccc(NC(=O)c3cccc(C(F)(F)F)c3)cc2C)n1 [N-(3-Methyl-4-(3-(2-(methylamino)pyrimidin-4-yl)pyridin-2-yloxy)phenyl)-3-(trifluoromethyl)benzamide]
< 5.92 | CNc1nccc(-c2cccnc2Oc2ccc(NC(=O)c3cccc(Oc4ccccc4)c3)cc2C)n1 [N-(3-Methyl-4-(3-(2-(methylamino)pyrimidin-4-yl)pyridin-2-yloxy)phenyl)-3-phenoxybenzamide]
7.82 | CNc1nccc(-c2cccnc2Oc2ccc(NC(=O)c3ccccc3Nc3ccccc3)cc2)n1 [N-(4-(3-(2-(Methylamino)pyrimidin-4-yl)pyridin-2-yloxy)phenyl)-2-(phenylamino)benzamide]
7.82 | CNc1nccc(-c2cccnc2Oc2ccc(Nc3nnc(-c4ccccc4)c4ccccc34)cc2)n1 [N-(4-(3-(2-(Methylamino)pyrimidin-4-yl)pyridin-2-yloxy)phenyl)-4-phenylphthalazin-1-amine]
